PMC10272180, “Ancient medicinal plant rosemary contains a highly efficacious and isoform-selective KCNQ potassium channel opener” (Communications Biology, 2023)

What was measured:
KCNQ2/3 = target: T1, KCNQ2/3 (Homo sapiens, UniProt O43525+O43526); test: TEVC of KCNQ2/3 heteromers expressed in Xenopus laevis oocytes; format: cell-based; conditions: 100 µM
T1 construct: expressed in transfected cells; host or cells: Xenopus laevis oocytes co-injected with cRNAs
Excerpt: We generated cRNA transcripts encoding human KCNQ1, 2, 3, and 5 (wild-type and mutant) by in vitro transcription using the mMessage mMachine kit (Thermo Fisher Scientific, Waltham, MA, USA) according to manufacturer’s instructions, after vector linearization, from cDNA sub-cloned into expression vectors (pTLNx and pXOOM) incorporating Xenopus laevis β-globin 5’ and 3’ UTRs flanking the coding region to enhance translation and cRNA stability. Mutant KCNQ cDNAs were generated by Genscript (Piscataway, NJ, USA) and cRNAs made as above. We injected defolliculated stage V and VI Xenopus laevis oocytes (Xenoocyte, Dexter, MI, USA) with KCNQ cRNAs (2–10 ng) and incubated the oocytes at 16 °C in ND96 oocyte storage solution containing penicillin and streptomycin, with daily washing, for 2–4 days prior to two-electrode voltage-clamp (TEVC) recording.
We placed oocytes in a small-volume oocyte bath (Warner) and viewed them with a dissection microscope for cellular electrophysiology. We sourced chemicals from Sigma-Aldrich (St. Louis, MO, USA) and Combi-Blocks (San Diego, CA, USA). We studied effects of Salvia rosmarinus extracts and of compounds, solubilized directly in bath solution (in mM): 96 NaCl, 4 KCl, 1 MgCl2, 1 CaCl2, 10 HEPES (pH 7.6). We introduced extracts or compounds into the oocyte recording bath by gravity perfusion at a constant flow of 1 ml per minute for 3 min prior to recording. Pipettes were of 1-2 MΩ resistance when filled with 3 M KCl. […] We analyzed data using Clampfit (Molecular Devices) and Graphpad Prism software (GraphPad, San Diego, CA, USA), stating values as mean ± SEM. We plotted raw or normalized tail currents versus prepulse voltage and fitted with a single Boltzmann function:1 g=(A1−A2)/1+exp[V1/2−V/Vs]y+A2 where g is the normalized tail conductance, A1 is the initial value at -∞, A2 is the final value at +∞, V1/2 is the half-maximal voltage of activation and Vs the slope factor. We fitted activation and deactivation kinetics with single exponential functions.

KCNQ3* (KCNQ3-A315T) = KCNQ3* (KCNQ3-A315T) (Homo sapiens, UniProt O43525, A315T); test: TEVC of KCNQ3* homomers expressed in Xenopus laevis oocytes; format: cell-based; conditions: for Slope / V0.5 Normalized tail current / shift in V0.5act / V0.5 non-normalized tail current: 100 µM
Sequence of KCNQ3* (KCNQ3-A315T) (O43525 whole entry A315T): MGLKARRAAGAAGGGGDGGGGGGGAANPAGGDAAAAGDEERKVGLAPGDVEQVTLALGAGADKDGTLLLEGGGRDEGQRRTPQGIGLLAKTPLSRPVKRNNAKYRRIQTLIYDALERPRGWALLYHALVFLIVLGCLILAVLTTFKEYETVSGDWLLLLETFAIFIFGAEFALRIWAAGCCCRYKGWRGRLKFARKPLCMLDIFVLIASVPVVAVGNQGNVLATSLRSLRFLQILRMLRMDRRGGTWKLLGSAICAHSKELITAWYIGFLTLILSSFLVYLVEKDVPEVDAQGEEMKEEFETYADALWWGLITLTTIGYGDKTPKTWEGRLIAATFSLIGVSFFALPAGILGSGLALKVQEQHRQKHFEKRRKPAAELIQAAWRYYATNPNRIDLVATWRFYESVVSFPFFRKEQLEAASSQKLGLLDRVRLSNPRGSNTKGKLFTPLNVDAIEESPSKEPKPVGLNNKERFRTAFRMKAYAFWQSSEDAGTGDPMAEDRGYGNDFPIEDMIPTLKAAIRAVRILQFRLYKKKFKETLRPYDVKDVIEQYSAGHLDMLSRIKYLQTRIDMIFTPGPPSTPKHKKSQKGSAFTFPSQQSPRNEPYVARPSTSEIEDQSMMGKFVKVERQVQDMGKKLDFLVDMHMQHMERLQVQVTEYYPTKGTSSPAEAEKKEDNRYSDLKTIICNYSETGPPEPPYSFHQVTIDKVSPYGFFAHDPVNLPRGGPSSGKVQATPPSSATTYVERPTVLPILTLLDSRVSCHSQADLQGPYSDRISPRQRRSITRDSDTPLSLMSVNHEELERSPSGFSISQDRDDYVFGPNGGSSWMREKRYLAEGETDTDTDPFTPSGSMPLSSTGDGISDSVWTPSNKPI

[1] = test system: voltage-gated calcium channel, Cav3.2; parameters: method as in PMID 29073181; conditions: cited from earlier work
KCNQ3/5 = test system: KCNQ3/5; parameters: method as in PMID 11159685; conditions: cited from earlier work
KCNQ2/3 channels = test system: KCNQ2/3 channels; parameters: method as in PMID 35459955; conditions: cited from earlier work

SMILES | Slope (KCNQ2/3) [mV] | V0.5 Normalized tail current (KCNQ2/3) [mV] | Slope (KCNQ3* (KCNQ3-A315T)) [mV] | V0.5 Normalized tail current (KCNQ3* (KCNQ3-A315T)) [mV] | V0.5 non-normalized tail current (KCNQ3* (KCNQ3-A315T)) [mV] | further results
CC(C)c1cc2c(cc1O)C1(C(=O)O)CCCC(C)(C)C1CC2 (stereo not drawn) [Pisiferic acid, pisiferic acid] | 7.44 ± 0.55 | -42.05 ± 0.63 | 4.89 ± 0.45 | -51.70 ± 0.51 | – | shift in V0.5act (KCNQ3* (KCNQ3-A315T)): only weakly negative-shifted
O=C(O)[C@]1(O)C[C@@H](O)[C@@H](O)[C@H](O)C1 [Quinic acid, quinic acid] | 4.07 ± 0.85 | -47.87 ± 0.94 | 3.96 ± 0.88 | -53.04 ± 1.09 | -51.87 ± 2.53 | V0.5 non-normalized tail current (KCNQ2/3): -45.78 ± 1.64 mV; shift in V0.5act (KCNQ3* (KCNQ3-A315T)): ~ −10 mV
O=C(/C=C/c1ccc(O)c(O)c1)O[C@H](Cc1ccc(O)c(O)c1)C(=O)O [Rosmarinic acid] | – | – | 4.36 ± 0.60 | -49.64 ± 0.84 | -50.09 ± 3.47 | IC50 [1]: 49.9 µM
COc1cc(C(=O)O)cc(OC)c1O [Syringic acid] | 5.13 ± 0.75 | -47.76 ± 0.91 | 4.92 ± 1.03 | -49.16 ± 1.21 | -51.58 ± 5.36 | V0.5 non-normalized tail current (KCNQ2/3): -44.21 ± 2.07 mV
C[C@H]1[C@H](C)CC[C@]2(C(=O)O)CC[C@]3(C)C(=CC[C@@H]4[C@@]5(C)CC[C@H](O)C(C)(C)[C@@H]5CC[C@]43C)[C@H]12 [Ursolic acid] | – | – | 4.49 ± 0.53 | – | – | –
CCOC(=O)Nc1ccc(NCc2ccc(F)cc2)cc1N [retigabine] | – | – | – | – | – | shift in V0.5 of KCNQ3/5 activation (KCNQ3/5; 30 µM): −31.8 mV; EC50 (KCNQ3/5): 1.4 µM
Oc1cc(Cl)ccc1Oc1ccc(Cl)cc1Cl [triclosan] | – | – | – | – | – | EC50 (KCNQ2/3 channels): 32 µM
COC[C@H]1OC(=O)c2coc3c2[C@@]1(C)C1=C(C3=O)[C@@H]2CCC(=O)[C@@]2(C)C[C@H]1OC(C)=O [wortmannin, reference compound] | – | – | – | – | – | reduction of KCNQ3* current magnitude (KCNQ3* (KCNQ3-A315T); wortmannin pretreatment to reduce PIP2): ~ fivefold
